The results in this text go back to patent publication US10323061B2, “Heteroaryl containing bile acid analogs as FXR/TGR5 agonists and methods of use thereof” (ENANTA PHARMACEUTICALS, INC., priority 2016, dated 2019).

This assay deals with T1, human FXR (NR1H4) (Homo sapiens, UniProt Q96RI1).
T1 construct: host or cells: CHO (Chinese hamster ovary) cells
T1 sequence (Q96RI1 1-486): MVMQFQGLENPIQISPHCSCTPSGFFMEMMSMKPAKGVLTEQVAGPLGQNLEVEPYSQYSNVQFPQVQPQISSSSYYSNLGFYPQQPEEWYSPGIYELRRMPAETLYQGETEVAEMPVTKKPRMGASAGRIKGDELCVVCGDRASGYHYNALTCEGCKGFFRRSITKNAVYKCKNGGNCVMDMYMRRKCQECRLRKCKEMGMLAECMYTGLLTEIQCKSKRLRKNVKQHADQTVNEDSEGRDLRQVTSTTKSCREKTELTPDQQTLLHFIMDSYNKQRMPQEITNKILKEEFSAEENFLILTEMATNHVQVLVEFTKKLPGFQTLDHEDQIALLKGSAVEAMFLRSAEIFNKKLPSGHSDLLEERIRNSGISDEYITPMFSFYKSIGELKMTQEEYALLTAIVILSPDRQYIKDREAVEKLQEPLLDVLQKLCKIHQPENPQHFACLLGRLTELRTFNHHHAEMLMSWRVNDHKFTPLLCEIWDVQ
Nature of the assay: Human FXR (NR1H4) Assay (Gal4 promoter driven luciferase reporter, Indigo Bioscience kit IB00601). Type of assay: cell-based. The conditions noted are these: CHO reporter cells expressing human NR1H4; for EC50: FXR agonistic potency range, 22 hours incubation; for Efficacy (%): normalized to CDCA set as 100%. The text has this:
Assays Human FXR (NR1H4) Assay Determination of a ligand mediated Gal4 promoter driven transactivation to quantify ligand binding mediated activation of FXR. FXR Reporter Assay kit purchased from Indigo Bioscience (Catalogue number: IB00601) to determine the potency and efficacy of compound developed by Enanta that can induce FXR activation. The principal application of this reporter assay system is to quantify functional activity of human FXR. The assay utilizes non-human mammalian cells, CHO (Chinese hamster ovary) cells engineered to express human NR1H4 protein (referred to as FXR). Reporter cells also incorporate the cDNA encoding beetle luciferase which catalyzes the substrates and yields photon emission. Luminescence intensity of the reaction is quantified using a plate-reading luminometer, Envision. Reporter Cells include the luciferase reporter gene functionally linked to an FXR responsive promoter. Thus, quantifying changes in luciferase expression in the treated reporter cells provides a sensitive surrogate measure of the changes in FXR activity. […] The assay is according to the manufacturer's instructions. In brief, the assay was performed in white, 96 well plates using final volume of 100 ul containing cells with different doses of compounds. Retrieve Reporter Cells from −80° C. storage. Perform a rapid thaw of the frozen cells by transferring a 10 ml volume of 37° C. cell recovery medium into the tube of frozen cells. Recap the tube of Reporter Cells and immediately place it in a 37° C. water bath for 5-10 minutes. Retrieve the tube of Reporter Cell Suspension from the water bath. Sanitize the outside surface of the tube with a 70% alcohol swab, and then transfer it into the cell culture hood. Dispense 90 μl of cell suspension into each well of the 96-well Assay Plate. Transfer the plate into 37° C. incubator, allowing the cells adherent to the bottom of the well. Dilute compounds in Dilution Plate (DP), and administrate to cells at Assay Plate (AP). DMSO content of the samples was kept at 0.2%. Cells were incubated for additional 22 hours before luciferase activities were measured. Thirty minutes before intending to quantify FXR activity, remove Detection Substrate and Detection Buffer from the refrigerator and place them in a low-light area so that they may equilibrate to room temperature. Remove the plate's lid and discard all media contents by ejecting it into an appropriate waste container. Gently tap the inverted plate onto a clean absorbent paper towel to remove residual droplets. Cells will remain tightly adhered to well bottoms. Add 100 μl of luciferase detection reagent to each well of the assay plate. Allow the assay plate to rest at room temperature for at least 5 minutes following the addition of LDR. Set the instrument (Envision) to perform a single 5 second “plate shake” prior to reading the first assay well. Read time may be 0.5 second (500 mSec) per well.
For orientation: A reporter such as luciferase makes a cellular process visible.

Consider `CC[C@H]1[C@@H](O)[C@@H]2[C@H](CC[C@]3(C)[C@@H]([C@H](C)CCc4nnc(-c5ccc(C(C)(C)C)cc5)s4)CC[C@@H]23)[C@@]2(C)CC[C@@H](O)C[C@@H]12` [Example 19], for which the EC50 was in the range of 1 to 10 µM and the “Efficacy (%)” value stood at 172%.
Taken in the same sequence, the figures for `CC[C@H]1[C@@H](O)[C@@H]2[C@H](CC[C@]3(C)[C@@H]([C@H](C)CCc4nnc(C5CC5)s4)CC[C@@H]23)[C@@]2(C)CC[C@@H](O)C[C@@H]12` [Example 12] were 0.1 to 1 µM and 369%.
Taken in the same sequence, the figures for `CC[C@H]1[C@@H](O)[C@@H]2[C@H](CC[C@]3(C)[C@@H]([C@H](C)CCc4nnc(Cc5ccccc5)s4)CC[C@@H]23)[C@@]2(C)CC[C@@H](O)C[C@@H]12` [Example 16] were 0.1 to 1 µM and 378%.
Taken in the same sequence, the figures for `CC[C@H]1[C@@H](O)[C@@H]2[C@H](CC[C@]3(C)[C@@H]([C@H](C)CCc4nnc(C5CC5)[nH]4)CC[C@@H]23)[C@@]2(C)CC[C@@H](O)C[C@@H]12` [Example 13] were 1 to 10 µM and 168%.
`CC[C@H]1[C@@H](O)[C@@H]2[C@H](CC[C@]3(C)[C@@H]([C@H](C)CCc4nnc(N)o4)CC[C@@H]23)[C@@]2(C)CC[C@@H](O)C[C@@H]12` [Example 9]: the EC50 fell in the range of 0.1 to 1 µM and the “Efficacy (%)” value turned out to be 222%.
Taken in the same sequence, the figures for `CC[C@H]1[C@@H](O)[C@@H]2[C@H](CC[C@]3(C)[C@@H]([C@H](C)CCc4nnc(-c5ccccc5)s4)CC[C@@H]23)[C@@]2(C)CC[C@@H](O)C[C@@H]12` [Example 15] were 0.1 to 1 µM and 362%.
With `CC[C@H]1[C@@H](O)[C@@H]2[C@H](CC[C@]3(C)[C@@H]([C@H](C)Cc4nnc(NS(=O)(=O)N(C)C)[nH]4)CC[C@@H]23)[C@@]2(C)CC[C@@H](O)C[C@@H]12` [Example 8], the EC50 was in the range of 0.1 to 1 µM and the “Efficacy (%)” value is 234%.
On the same counts, the results for `CC[C@H]1[C@@H](O)[C@@H]2[C@H](CC[C@]3(C)[C@@H]([C@H](C)Cc4nnc(-c5ccc(C(C)(C)C)cc5)o4)CC[C@@H]23)[C@@]2(C)CC[C@@H](O)C[C@@H]12` [Example 20] are 1 to 10 µM and 87%.
Taken in the same sequence, the figures for `CC[C@H]1[C@@H](O)[C@@H]2[C@H](CC[C@]3(C)[C@@H]([C@H](C)CCc4nc(C5CC5)no4)CC[C@@H]23)[C@@]2(C)CC[C@@H](O)C[C@@H]12` [Example 11] were 1 to 10 µM and 239%.
For `CC[C@H]1[C@@H](O)[C@@H]2[C@H](CC[C@]3(C)[C@@H]([C@H](C)CCc4nnc(C(C)(C)C)s4)CC[C@@H]23)[C@@]2(C)CC[C@@H](O)C[C@@H]12` [Example 17], the EC50 was in the range of 0.1 to 1 µM and the “Efficacy (%)” value is recorded as 314%.
Taken in the same sequence, the figures for `CC[C@H]1[C@@H](O)[C@@H]2[C@H](CC[C@]3(C)[C@@H]([C@H](C)CCc4nnc(C5CCCCC5)s4)CC[C@@H]23)[C@@]2(C)CC[C@@H](O)C[C@@H]12` [Example 18] were 1 to 10 µM and 244%.
Taken in the same sequence, the figures for `CC[C@H]1[C@@H](O)[C@@H]2[C@H](CC[C@]3(C)[C@@H]([C@H](C)CCc4nnc(N(C)C)o4)CC[C@@H]23)[C@@]2(C)CC[C@@H](O)C[C@@H]12` [Example 14] were 0.1 to 1 µM and 265%.
Turning to `CC[C@H]1[C@@H](O)[C@@H]2[C@H](CC[C@]3(C)[C@@H]([C@H](C)CCc4nnc(C5CC5)o4)CC[C@@H]23)[C@@]2(C)CC[C@@H](O)C[C@@H]12` [Example 10], the EC50 fell in the range of 0.1 to 1 µM and the “Efficacy (%)” value stood at 304%.

By EC50 is commonly meant the concentration needed to bring the measured effect to its halfway point. Lower therefore signals greater potency.
